A short description of series [1]: Plasma and ELF pharmacokinetics after intratracheal administration, simultaneous PK modeling. The note with it: male, Sprague–Dawley, rat, in vivo, rats, 0.35 mg·kg^−1, whatever the formulation used. On the procedure:
In vivo experiments were undertaken in compliance with EC Directive 2010/63/EU after agreement by a local ethics committee. Male Sprague–Dawley rats (n = 68) from Janvier Laboratories (Le Genest-St.-Isle, France) with weights of 324 ± 24 g (mean ± SD) were used. Animals were acclimatized for 5 days prior to experiments. They always had free access to food and water.
The target COLI dose delivered was 0.35 mg kg^−1 (base form). This dose was previously used in our lab to investigate the pharmacokinetic properties of colistin following intratracheal administration of colistin sulfate solution in rats. […] The insufflator was weighed with a 0.01 mg accuracy scale (Sartorius KB BA100) before and after insufflation to determine the exact amount of powder delivered, and the dose of colistin administered was calculated based on the animal’s weight. […]
Bronchoalveolar lavage fluid (BALF) collection was performed according to methods previously described. […] COLI and urea concentrations were determined in both plasma and BALF. […] Therefore, the COLI concentration in ELF(CELF) was calculated using Equation 1 from measured COLI concentrations in BALF (CBAL) by using urea as a marker of dilution. CELF = CBAL (Ureaplasma/UreaBAL)(1) where UreaBAL and Ureaplasma correspond to the concentrations of urea determined in BALF and plasma. […]

Series [2] is described as follows: Apical-to-basolateral COLI transport across Calu-3 monolayers. Type of series: in vitro ADME. The note with it: human; Calu-3, air-interface 15 days, apical-to-basolateral, COLI 100 mg/L (COLI or dissolved INU-COLI particles), HBSS/10 mM HEPES pH 7.4, 6 h, LC-MS/MS; read-out: COLI apparent permeability (Papp). On the procedure:
(§1) Calu-3 cells were purchased from the American Type Culture Collection (Manassas, VA, USA). The cells were cultured in DMEM/Ham’s F12 (1/1) (PanBiotech) supplemented with L-glutamine (2 mM), fetal calf serum (10% v/v), and incubated at 37 °C under 90–95% of RH and 5% v/v of CO2 in the air.
(§2) Samples were taken after 60 min at 37 °C.
(§3) The determination of COLI plasma concentrations was performed based on a validated LC-MS/MS method previously described. The chromatography was performed on an Alliance 2695 system (Waters, France) with a Jupiter 300-Å column (5.0 µm, 50 mm, 2.0-mm i.d.; Waters, St.-Quentin en Yvelines, France) and a mobile phase (flow rate 0.2 mL/min) consisting of 0.1% (v/v) formic acid in acetonitrile–0.1% formic acid in water (25:75 v/v). The mass spectrometer Micromass Quattro microAPI (Waters, France) was used in the positive/ion mode. The calibration standard curve was prepared with seven samples in rat plasma with COLI base concentrations ranging between 0.0097 and 10 µg·mL^−1. For analysis of COLI in BALF and in the medium used for the COLI transport experiments, 150 µL of sample was mixed with 100 µL of plasma and analyzed as for plasma.

Series [3] has as its system Calu-3 cell epithelium model. The description is as above. In kind it is in vitro ADME. On the procedure: as §1, §2, §3
Series [4] has as its system Calu-3 cell epithelium model. The settings on record: cited from earlier work. From the text: COLI Papp changed as a function of COLI concentration in the Calu-3 cell monolayer apical side (Figure 5). […] This value was consistent with a previous determination (0.42 × 10^−7 cm·s^−1).
For series [5] the following is noted: previous studies; cited from earlier work. On the procedure: The day before the experiment polyethylene catheters were implanted into the femoral artery of anesthetized rats. […] Accordingly, arterial blood samples were collected at 0, 0.25, 0.5, 1, 2, 3, and 4 h after pulmonary administration. Plasma was obtained and frozen at −80 °C.
The conditions of series [6]: fixed in the PK model; cited from earlier work. From the text: Plasma and ELF COLI concentrations versus time were simultaneously analyzed by a nonlinear mixed-effects method with S-ADAPT software (v 1.52, Biomedical Simulations Resource (BMSR), Los Angeles, USA) with S-ADAPT TRAN translator [19]. The structural model (Appendix C, Figure A3) used for data analysis has been developed in a previous study to fit plasma and ELF COLI concentrations after COLI intravenous administrations and solution nebulization to rats. Briefly, the systemic pharmacokinetics of COLI were described by a two-compartment model, characterized by a central compartment (Vc ...

For series [7] the following is noted: cited from earlier work. From the text: Due to its low permeability across the lung–blood barrier, colistin methanesulfonate (CMS) is one of only four antibiotics currently used to treat Pseudomonas aeruginosa lung infections by inhalation. CMS is an anionic prodrug of colistin (COLI), which is a cationic lipopeptide mix composed mainly of two molecules: colistin A and B. Inhaled COLI therapy is almost always conducted by means of nebulization of CMS instead of the cationic COLI since the use of the latter can lead to more side effects, such as bronchoconstriction, throat irritation, and cough.

A further series deals with P. aeruginosa. The note with it: cited from earlier work. From the text:
However, CMS is not an optimal p ...

Counter-ions that a name gives are not always drawn. Where a SMILES comes first, the peptide text is derived from it. Bridges are numbered along the chain shown (N, C = ends). [ ]: non-standard residue; d: D form. The star is where a group is joined. X1 = CC[C@H](C)CCCCC(=O)*; Dab = NCC[C@H](N)C(=O)O

As for `CC[C@H](C)CCCCC(=O)N[C@@H](CCN)C(=O)N[C@H](C(=O)N[C@@H](CCN)C(=O)N[C@H]1CCNC(=O)[C@H]([C@@H](C)O)NC(=O)[C@H](CCN)NC(=O)[C@H](CCN)NC(=O)[C@H](CC(C)C)NC(=O)[C@@H](CC(C)C)NC(=O)[C@H](CCN)NC1=O)[C@@H](C)O` [COLI, Colistin sulfate salt] (X1-[Dab]T[Dab][Dab][Dab][dL]L[Dab][Dab]T; lactam 4-C), in series [1], the Cmax was 330 ng/mL and the Tmax was 30 min. In series [2], the Papp A→B at 6 h, 100 mg/L was 0.043 ± 0.011 ×10⁻⁶ cm/s. Besides, the “fold increase in COLI Papp” value in series [3] (Calu-3, COLI concentration changed from 100 to 4000 mg/L) is reported as 10 fold. Further, the “fold increase in COLI Papp” value in series [3] (Calu-3 A-B, 6 h, COLI concentration increased to 1000 mg/L (from 100 mg/L)) stood at 4 fold. For the same compound, the “additional fold increase in COLI Papp” value in series [3] (Calu-3 A-B, 6 h, further increase in COLI concentration to 4000 mg/L (from 1000 mg/L)) is reported as 2.5 fold. In series [4], the “COLI Papp, previous determination” value is listed as 0.42 10^−7 cm·s^−1. Moreover, in series [5], the “plasma COLI half-life” value is 30 to 40 min. For the same compound, the “COLI unbound plasma fraction” value in series [6] was 45%. Moreover, the “COLI concentrations measured in the ELF” value in series [7] (patients, six hours after inhalation of nebulized CMS solutions) is recorded as “greater than 1000 mg/L”.

With colistin methanesulfonate [CMS], in series [7] (human, in vivo), the “fraction of the CMS dose converted into COLI in the lung” value is on record as 1.4 % (w/w). For the same compound, the “activity against P. aeruginosa” value in the series with P. aeruginosa was “inactive”.

The record behind these values is publication PMC7356940, “Comparison between Colistin Sulfate Dry Powder and Solution for Pulmonary Delivery” (Pharmaceutics, 2020).
